Where two headings read alike, the source gives them in different places.
Assays:
[1] = test system: K. pneumoniae B88; assay: Minimum filamentation / spheroplasting concentration; details: K. pneumoniae B88 (NDM, SHV, TEM); minimum spheroplasting concentration
Text: (§2) The term “MSC” as used herein refers to minimum spheroplasting concentration, which is the minimum concentration of an antibacterial agent at which about 80% of bacterial cells covert into spheroplasts.
(§3) The term “MFC” as used herein refers to minimum filamentation concentration, which is the minimum concentration of an antibacterial agent at which about 80% of bacterial cells get elongated to form filament like structures.

[2] = test system: Pseudomonas aeruginosa NCTC 13437 producing carbapenem hydrolyzing MBL (VIM 10) & Class A (VEB1); assay: Time kill study (viability count); format: cell-based; details: Cefepime 8 μg/ml, Compound of Formula (III) 8 μg/ml, Imipenem 16 μg/ml
[3] = test system: E. coli ATCC 25922; assay: Time kill study (viability count); format: cell-based; details: for Bacterial count: Compound of Formula (III) 2 μg/ml, alone or combined
[4] = test system: P. aeruginosa PAO1; assay: Time kill study (viability count); format: cell-based; details: for Bacterial count: Compound of Formula (III) 4 μg/ml, alone or combined
[5] = test system: Acinetobacter baumannii NCTC 13304 producing carbapenem hydrolyzing Class D OXA enzyme (OXA 27); assay: Time kill study (viability count); format: cell-based; details: Cefepime 8 μg/ml, Compound of Formula (III) 8 μg/ml, Imipenem 16 μg/ml
[6] = test system: P. mirabilis G 186; assay: Minimum filamentation / spheroplasting concentration; details: P. mirabilis G 186 (NDM, TEM); minimum spheroplasting concentration
Text: as §2, §3

[7] = test system: K. pneumonia S48 expressing multiple ESBLs including MBL (NDM4) and Class A (CTX-M, SHV, TEM); format: cell-based, K. pneumoniae; details: Cefepime 8 μg/ml, Compound of Formula (III) 2 μg/ml, Clavulanic acid 2 μg/ml, Mecillinam 2 μg/ml, Imipenem 8 μg/ml
Experimental: Log phase cultures were diluted to desired inoculums in flasks with MHB, containing various drug concentrations. Flasks were incubated at 35° C. in orbital shaker with rotational speed of 125 rpm. […] Plates were incubated for 24 hours at 35° C. and colonies were enumerated to determine the colony forming units (CFU) per ml volume.

[8] = test system: MDR P. mirabilis G 186 producing NDM & TEM β-lactamases; assay: Time kill study at MFC and MSC; format: cell-based; details: for Bacterial count: Cefepime 8 mcg/ml (MFC), Compound of Formula (III) 0.25 mcg/ml (MSC), Imepenem 8 mcg/ml
Experimental: (§1) The synergistic killing effect of the combinations according to invention was studied by performing time kill studies. In a typical time kill study, the freshly grown cultures were diluted to the required cell density (initial starting inoculum) in Cation adjusted Muller Hinton broth medium (BD, USA). The antibacterial agents (either alone or in combination) at the required concentrations were added into the culture-containing medium. The samples were incubated under shaking condition (120 rpm) at 37° C. Enumeration of viable bacterial count was done every 2 hour by diluting in normal saline and plating on to the Tryptic Soya Agar plates (BD, USA). The plates were incubated for 24 hours to arrive at the viable bacterial count. The results are expressed in terms of Log CFU per ml. In general, the decrease of 1 Log CFU/ml, corresponds to 90% killing of bacteria. Similarly, 2 Log CFU/ml reductions indicates to 99% killing of bacteria and 3 Log CFU/ml reductions is equal to 99.9% killing of bacteria.

[9] = test system: MDR Klebsiella pneumoniae B 88 producing NDM, SHV & TEM beta-lactamases; assay: Time kill study at MFC and MSC; format: cell-based; details: for Bacterial count: Cefepime 8 mcg/ml (MFC), Compound of Formula (III) 0.12 mcg/ml (MSC), Imepenem 8 mcg/ml
Experimental: as §1

O=C(NNC(=O)[C@@H]1CC[C@@H]2CN1C(=O)N2OS(=O)(=O)O)[C@@H]1CCCNC1 [Compound of Formula (III), trans-(2S,5R)-sulfuric acid mono-[2-(N′—[(R)-piperidin-3-carbonyl]-hydrazino Carbonyl)-7-oxo-1,6-diaza-bicyclo[3.2.1]oct-6-yl] Ester]
MSC [1]: 0.12 µg/mL
Bacterial count ([2]; 0 hour): 6.0 log (CFU/ml)
Bacterial count ([2]; 2 hours): 6.55 log (CFU/ml)
Bacterial count ([2]; 4 hours): 5.9 log (CFU/ml)
Bacterial count ([2]; 6 hours): 5.81 log (CFU/ml)
Bacterial count ([2]; 12 hours): 6.2 log (CFU/ml)
Bacterial count ([3]; 0 hour, Aztreonam 1 μg/ml): 7.47 log (CFU/ml)
Bacterial count ([3]; 0 hour, Cefoxitin 1 μg/ml): 7.47 log (CFU/ml)
Bacterial count ([3]; 0 hour, Cefsulodin 16 μg/ml): 7.47 log (CFU/ml)
Bacterial count ([3]; 2 hours, Aztreonam 1 μg/ml): 7.85 log (CFU/ml)
Bacterial count ([3]; 2 hours, Cefoxitin 1 μg/ml): 7.85 log (CFU/ml)
Bacterial count ([3]; 2 hours, Cefsulodin 16 μg/ml): 7.85 log (CFU/ml)
Bacterial count ([3]; 4 hours, Aztreonam 1 μg/ml): 7.88 log (CFU/ml)
Bacterial count ([3]; 4 hours, Cefoxitin 1 μg/ml): 7.88 log (CFU/ml)
Bacterial count ([3]; 4 hours, Cefsulodin 16 μg/ml): 7.88 log (CFU/ml)
Bacterial count ([3]; 6 hours, Aztreonam 1 μg/ml): 8.26 log (CFU/ml)
Bacterial count ([3]; 6 hours, Cefoxitin 1 μg/ml): 8.26 log (CFU/ml)
Bacterial count ([3]; 6 hours, Cefsulodin 16 μg/ml): 8.26 log (CFU/ml)
Bacterial count ([3]; 24 hours, Aztreonam 1 μg/ml): 8.34 log (CFU/ml)
Bacterial count ([3]; 24 hours, Cefoxitin 1 μg/ml): 8.34 log (CFU/ml)
Bacterial count ([3]; 24 hours, Cefsulodin 16 μg/ml): 8.34 log (CFU/ml)
Bactericidal action (in words) ([3]; E. coli ATCC 25922, standalone or combination, Tables 3 to 5): did not exhibit any significant bactericidal action
Bacterial count ([4]; 0 hour, Aztreonam 2 μg/ml): 5.74 log (CFU/ml)
Bacterial count ([4]; 0 hour, Cefsulodin 2 μg/ml): 6.81 log (CFU/ml)
Bacterial count ([4]; 2 hours, Aztreonam 2 μg/ml): 6.5 log (CFU/ml)
Bacterial count ([4]; 2 hours, Cefsulodin 2 μg/ml): 7.23 log (CFU/ml)
Bacterial count ([4]; 4 hours, Aztreonam 2 μg/ml): 7.6 log (CFU/ml)
Bacterial count ([4]; 4 hours, Cefsulodin 2 μg/ml): 7.18 log (CFU/ml)
Bacterial count ([4]; 6 hours, Aztreonam 2 μg/ml): 7.9 log (CFU/ml)
Bacterial count ([4]; 6 hours, Cefsulodin 2 μg/ml): 7.5 log (CFU/ml)
Bacterial count ([4]; 24 hours, Aztreonam 2 μg/ml): 8.8 log (CFU/ml)
Bacterial count ([4]; 24 hours, Cefsulodin 2 μg/ml): 8.2 log (CFU/ml)
Bactericidal action (in words) ([4]; P. aeruginosa PAO1, standalone or combination, Tables 6 and 7): did not exhibit any bactericidal action
Bacterial count ([5]; 0 hour): 6.3 log (CFU/ml)
Bacterial count ([5]; 2 hours): 7.5 log (CFU/ml)
Bacterial count ([5]; 4 hours): 7.9 log (CFU/ml)
Bacterial count ([5]; 6 hours): 8.1 log (CFU/ml)
Bacterial count ([5]; 8 hours): 8.1 log (CFU/ml)
MSC [6]: 0.25 µg/mL
Bacterial count ([7]; 0 hour): 5.5 log (CFU/ml)
Bacterial count ([7]; 2 hours): 5.4 log (CFU/ml)
Bacterial count ([7]; 4 hours): 3.5 log (CFU/ml)
Bacterial count ([7]; 6 hours): 3.6 log (CFU/ml)
Bacterial count ([8]; 0 hour): 6.58 Log10 CFU/ml
Bacterial count ([8]; 2 hours): 7.2 Log10 CFU/ml
Bacterial count ([8]; 4 hours): 7.7 Log10 CFU/ml
Bacterial count ([8]; 6 hours): 8.43 Log10 CFU/ml
Bacterial count ([8]; 8 hours): 8.6 Log10 CFU/ml
Antibacterial activity (in words) ([8]; P. mirabilis G 186, at MFC and MSC concentration, Table 14): did not exhibit antibacterial activity
Bacterial count ([9]; 0 hour): 6.14 Log10 CFU/ml
Bacterial count ([9]; 2 hours): 7.3 Log10 CFU/ml
Bacterial count ([9]; 4 hours): 7.8 Log10 CFU/ml
Bacterial count ([9]; 6 hours): 7.9 Log10 CFU/ml
Bacterial count ([9]; 8 hours): 8.5 Log10 CFU/ml
Antibacterial activity (in words) ([9]; Klebsiella pneumoniae B 88, at MFC and MSC concentration, Table 13): did not exhibit antibacterial activity

Reference: patent US20170172994A1, “COMPOSITIONS AND METHODS FOR TREATING BACTERIAL INFECTIONS” (WOCKHARDT LIMITED, priority 2013, published 2017)
